Results published in patent US6608179B1, “Antibodies, that bind to HIV-2 transmembrane glycoprotein homodimer (gp 80)” (Institut Pasteur, priority 1988, dated 2003).

Key:
[1] = system: HIV-2 infected CEM cells; test: Effect of glucosidase inhibitor on production of viral proteins in HIV-2 infected cells; type: cell-based; conditions: castanospermine 1 mM, 16 hr [35S] methionine labeling, culture supernatants
Procedure: To confirm that gp80 was produced during the processing of envelope precursor, HIV-2 infected cells were labeled with [^35S] methionine in the absence or presence of the glucosidase inhibitor, castanospermine (Saul et al., 1983). Culture supernatants were then assayed by immunoprecipitation using an HIV-2 positive patient serum which recognizes several viral proteins.

[2] = molecular target: T1, binding of mAb 1H8 to gp80 (Human immunodeficiency virus type 2 subtype A, UniProt P04577); test: Peptide blocking of antibody signals in Western blot of HIV-2 virus pellet; conditions: 1 μg/ml of peptide p39′
T1 construct: cleaved by the cellular protease to give the extracellular glycoprotein gp125 and the transmembrane glycoprotein dimer gp80; endogenous in cells; host or cells: virus pellet from culture medium of HIV-2 infected CEM cells
T1 sequence (P04577 512-858 limits assumed): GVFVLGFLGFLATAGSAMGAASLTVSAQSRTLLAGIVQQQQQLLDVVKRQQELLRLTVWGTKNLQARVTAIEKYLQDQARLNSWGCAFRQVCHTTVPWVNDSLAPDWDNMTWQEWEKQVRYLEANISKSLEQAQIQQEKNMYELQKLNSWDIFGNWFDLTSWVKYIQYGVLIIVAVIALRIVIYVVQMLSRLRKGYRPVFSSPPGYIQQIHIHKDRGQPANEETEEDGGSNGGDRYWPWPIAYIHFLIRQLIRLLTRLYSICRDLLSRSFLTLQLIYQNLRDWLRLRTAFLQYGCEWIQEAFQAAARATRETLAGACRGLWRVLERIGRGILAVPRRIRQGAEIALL
Procedure: Extracts from the HIV-2 virus pellets were analyzed by Western blot assay using mAb 1H8 (section mAb) or anti-gp300 polyclonal antibodies (section S). Incubation with each antibody was carried out in the absence (lanes −) or presence (lanes +) of 10 μg of peptide p39′. The results of the autoradiography are shown.
To show the specificity of mAb 1H8 reactivity with gp80, a Western blot assay using extracts from HIV-2 virus pellet was carried out. After the transfer of proteins, nitrocellulose sheets were incubated with mAb 1H8 or anti-gp300 polyclonal antibodies in the absence or presence of 1 μg/ml of peptide p39′ (FIG. 5). […] In addition, a signal for gp36 was observed, but only after a prolonged exposure of the autoradiogram. […] These observations confirm that the reactivity of mAb 1H8 should be with the 26 amino acid residue corresponding to the amino acids 579 to 604 in the transmembrane glycoprotein of HIV-2. Consequently, a sequence corresponding to that of peptide p39′ should be present in gp80. The reactivity of anti-gp300 antibodies was not modified by peptide p39′. Therefore, these antibodies should interact with other epitopes than that corresponding to peptide 39′. […]

[3] = system: HIV-2 infected cells; test: Incorporation of labeled sugars into HIV-2 glycoproteins in infected cells; type: cell-based; conditions: [3H] glucosamine, fucose, mannose; data not shown
Description: Extracts from HIV-2 infected cells metabolically labeled with [^3H] glucosamine and [^3H] fucose were immunoprecipitated using mAb 1H8 and anti-gp300 polyclonal antibodies. In accord with the previous results (FIGS. 3-6), anti-gp300 antibodies immunoprecipitated sugar labeled gp300, gp140, gp125, and gp80, whereas mAb 1H8 immunoprecipitated gp300, gp140, and gp80. All these proteins incorporated [^3H] glucosamine, whereas incorporation of [^3H] fucose mainly occurred in gp125 and gp80 (FIG. 7a). In these experiments, the labeling of gp36 with [^3H] glucosamine was observed faintly after a prolonged exposure of the autoradiogram (data not shown; similar to FIG. 1, Rey et al., 1989). The glycoprotein gp80 also can incorporate [^3H] mannose as is the case for gp300, gp140, and gp125 (data not shown).
For metabolic labeling of proteins, infected cells were incubated for 16 hours at 37° C. in MEM culture without L-methionine and serum, but supplemented with 200 μCi/ml [^35S] methionine. For metabolic labeling of glycoproteins, infected cells were incubated for 16 hours at 37° C. in MEM culture medium lacking serum and glucose but supplemented with 200 μCi/ml ^3H-Fucose or 200 μCi/ml ^3H-glucosamine.

[4] = system: HIV-2 infected cells; conditions: in the presence of monensin; previous study (Rey et al., 1989); cited from earlier work

## O[C@H]1[C@H](O)[C@@H](O)CN2CC[C@H](O)[C@H]12 [castanospermine]
[1]
  production of gp80 and gp125: markedly reduced
  production of the major core protein (p26): not significantly affected

## VTAIEKYLQDQARLNSWGCAFRQVCH [peptide p39′]
[2]
  effect of peptide on Western blot signals obtained with mAb 1H8: completely abolished
  effect of peptide on reactivity of anti-gp300 antibodies: not modified

## tunicamycin
[3]
  incorporation of labeled sugars in gp80 and other glycoproteins: completely blocked

## CC[C@@]1([C@@H]2O[C@@H]([C@H]3O[C@@](O)(CO)[C@H](C)C[C@@H]3C)C[C@@H]2C)CC[C@H]([C@]2(C)CC[C@]3(C[C@H](O)[C@@H](C)[C@@H]([C@@H](C)[C@@H](OC)[C@H](C)C(=O)O)O3)O2)O1 [monensin]
[4]
  135-kDa protein (gp135) in HIV-2 infected cells: accumulated
